Experimental data as given in patent US7507748B2, “Substituted aryl-amine derivatives and methods of use” (Amgen Inc., priority 2004, dated 2009).

System: Human Umbilical Vein Endothelial cells
Assay: VEGF-stimulated HUVEC proliferation assay
Format: cell-based
Details: 72 h, CyQuant, read-out: inhibited VEGF-stimulated HUVEC proliferation at a level
Experimental: Human Umbilical Vein Endothelial cells are purchased from Clonetics, Inc., as cryopreserved cells harvested from a pool of donors. These cells, at passage 1, are thawed and expanded in EBM-2 complete medium, until passage 2 or 3. The cells are trypsinized, washed in DMEM+10% FBS+antibiotics, and spun at 1000 rpm for 10 min. Prior to centrifugation of the cells, a small amount is collected for a cell count. After centrifugation, the medium is discarded, and the cells are resuspended in the appropriate volume of DMEM+10% FBS+antibiotics to achieve a concentration of 3×10^5 cells/mL. Another cell count is performed to confirm the cell concentration. The cells are diluted to 3×10^4 cells/mL in DMEM+10% FBS+antibiotics, and 100 μL of cells are added to a 96-well plate. The cells are incubated at 37° C. for 22 h.
Prior to the completion of the incubation period, compound dilutions are prepared. Five-point, five-fold serial dilutions are prepared in DMSO, at concentrations 400-fold greater than the final concentrations desired. 2.5 μL of each compound dilution are diluted further in a total of 1 mL DMEM+10% FBS+antibiotics (400× dilution). Medium containing 0.25% DMSO is also prepared for the 0 μM compound sample. At the 22-hour timepoint, the medium is removed from the cells, and 100 μL of each compound dilution is added. The cells are incubated at 37° C. for 2-3 h.
During the compound pre-incubation period, the growth factors are diluted to the appropriate concentrations. Solutions of DMEM+10% FBS+antibiotics, containing either VEGF or bFGF at the following concentrations: 50, 10, 2, 0.4, 0.08, and 0 ng/mL are prepared. For the compound-treated cells, solutions of VEGF at 550 ng/mL or bFGF at 220 ng/mL for 50 ng/mL or 20 ng/mL final concentrations, respectively, are prepared since 10 μL of each will be added to the cells (110 μL final volume). At the appropriate time after adding the compounds, the growth factors are added. VEGF is added to one set of plates, while bFGF is added to another set of plates. For the growth factor control curves, the media on wells B4-G6 of plates 1 and 2 are replaced with media containing VEGF or bFGF at the varying concentrations (50-0 ng/mL). The cells are incubated at 37° C. for an additional 72 h.
At the completion of the 72 h incubation period, the medium is removed, and the cells are washed twice with PBS. After the second wash with PBS, the plates are tapped gently to remove excess PBS, and the cells are placed at −70° C. for at least 30 min. The cells are thawed and analyzed using the CyQuant fluorescent dye (Molecular Probes C-7026), following the manufacturer's recommendations. The plates are read on a Victor/Wallac 1420 workstation at 485 nm/530 nm (excitation/emission). Raw data are collected and analyzed using a 4-parameter fit equation in XLFit. IC50 values are then determined.

SMILES | IC50
O=C(Nc1ccc(N2CCC2)nc1)c1cccnc1Nc1ccc2ccncc2c1 [Example 45, N-(6-Azetidin-1-yl-pyridin-3-yl)-2-(isoquinolin-7-ylamino)-nicotinamide] | < 1000 nM
CCC(C)(C)c1ccc(NC(=O)c2cccnc2Nc2ccc3ccncc3c2)cc1 [Example 46, N-(4-(1,1-Dimethyl-propyl)-phenyl)-2-(isoquinolin-7-ylamino)-nicotinamide] | < 1000 nM
O=C(Nc1ccc(N2CCC2)cn1)c1cccnc1Nc1ccc2ccncc2c1 [Example 47, N-(5-Azetidin-1-yl-pyridin-2-yl)-2-(isoquinolin-7-ylamino)-nicotinamide] | < 1000 nM
Cc1cc(NC(=O)c2cccnc2Nc2ccc3ccncc3c2)ccc1C(F)(F)C(F)(F)F [Example 48, 2-(Isoquinolin-7-ylamino)-N-(3-methyl-4-pentafluoroethyl-phenyl)-nicotinamide] | < 1000 nM
Cc1cc(NC(=O)c2cccnc2Nc2ccc3ccncc3c2)ccc1C(C)C [Example 49, N-(4-Isopropyl-3-methyl-phenyl)-2-(isoquinolin-7-ylamino)-nicotinamide] | < 1000 nM
CC(C)(C)c1cc(NC(=O)c2cccnc2Nc2ccc3ncncc3c2)on1 [Example 50, N-(3-tert-Butyl-isoxazol-5-yl)-2-(quinazolin-6-ylamino)-nicotinamide] | < 1000 nM
CC1(C)CNCc2cc(NC(=O)c3cccnc3Nc3ccc4ncncc4c3)ccc21 [Example 51, N-(4,4-Dimethyl-1,2,3,4-tetrahydro-isoquinolin-7-yl)-2-(quinazolin-6-ylamino)-nicotinamide] | < 1000 nM
CC1(C)CC(=O)Nc2cc(NC(=O)c3cccnc3Nc3ccc4ccncc4c3)ccc21 [Example 54, N-(4,4-Dimethyl-2-oxo-1,2,3,4-tetrahydro-quinolin-7-yl)-2-(isoquinolin-7-ylamino)-nicotinamide] | < 1000 nM
O=C1CSc2ccc(NC(=O)c3cccnc3Nc3ccc4ccncc4c3)cc2N1 [Example 55, 2-(isoquinolin-7-ylamino)-N-(3-oxo-3,4-dihydro-2H-1,4-benzothiazin-6-yl)nicotinamide] | < 1000 nM
CC(C)(C)c1ccc(NC(=O)c2cccnc2Nc2ccc3ncncc3c2)cc1 [Example 56, N-(4-tert-Butyl-phenyl)-2-(quinazolin-6-ylamino)-nicotinamide] | < 1000 nM
CC1(C)CCNc2cc(NC(=O)c3cccnc3Nc3ccc4ncncc4c3)ccc21 [Example 57, N-(4,4-Dimethyl-1,2,3,4-tetrahydro-quinolin-7-yl)-2-(quinazolin-6-ylamino)-nicotinamide] | < 1000 nM
CC1(C)CC(=O)Nc2nc(NC(=O)c3cccnc3Nc3ccc4ccncc4c3)ccc21 [Example 58, N-(5,5-dimethyl-7-oxo-5,6,7,8-tetrahydro-1,8-naphthyridin-2-yl)-2-(isoquinolin-7-ylamino)nicotinamide] | < 1000 nM
CC1(C)CC(=O)Nc2nc(NC(=O)c3cccnc3Nc3ccc4ncncc4c3)ccc21 [Example 59, N-(5,5-dimethyl-7-oxo-5,6,7,8-tetrahydro-1,8-naphthyridin-2-yl)-2-(quinazolin-6-ylamino)nicotinamide] | < 1000 nM
Cc1ccc(NC(=O)c2cccnc2Nc2ccc3ccncc3c2)cc1Cl [Example 60, N-(3-chloro-4-methylphenyl)-2-(isoquinolin-7-ylamino)nicotinamide] | < 1000 nM
O=C(Nc1ccc(OC(F)(F)F)cc1)c1cccnc1Nc1ccc2ccncc2c1 [Example 61, 2-(isoquinolin-7-ylamino)-N-(4-(trifluoromethoxy)phenyl)nicotinamide] | < 1000 nM
Cc1cc(NC(=O)c2cccnc2Nc2ccc3ccncc3c2)ccc1N1CCCC1 [Example 62, 2-(isoquinolin-7-ylamino)-N-(3-methyl-4-(pyrrolidin-1-yl)phenyl)nicotinamide] | < 1000 nM
Cc1cc(NC(=O)c2cccnc2Nc2ccc3nc(N)ncc3c2)ccc1C(C)C [Example 63, 2-(2-aminoquinazolin-6-ylamino)-N-(3-methyl-4-(1-methylethyl)phenyl)nicotinamide] | < 1000 nM
Cc1ccc(NC(=O)c2cccnc2Nc2ccc3nc(N)ncc3c2)cc1Cl [Example 64, 2-(2-aminoquinazolin-6-ylamino)-N-(3-chloro-4-methylphenyl)nicotinamide] | < 1000 nM
Nc1ncc2cc(Nc3ncccc3C(=O)Nc3ccc(Cl)cc3)ccc2n1 [Example 65, 2-(2-aminoquinazolin-6-ylamino)-N-(4-chlorophenyl)nicotinamide] | < 1000 nM
CC(C)(C)c1ccc(NC(=O)c2cccnc2Nc2ccc3nc(N)nc(N)c3c2)cc1 [Example 66, 2-(2,4-diaminoquinazolin-6-ylamino)-N-(4-tert-butylphenyl)nicotinamide] | < 1000 nM
CC(C)(C)c1ccc(NC(=O)c2cccnc2Nc2cccc3cnccc23)cc1 [Example 67, N-(4-tert-Butyl-phenyl)-2-(isoquinolin-5-ylamino)-nicotinamide] | < 1000 nM
CN1CCCC1COc1cc(NC(=O)c2cccnc2Nc2cccc3cnccc23)cc(C(F)(F)F)c1 (stereo not drawn) [Example 68, 2-(Isoquinolin-5-ylamino)-N-[3-(1-methyl-pyrrolidin-2-ylmethoxy)-5-trifluoromethyl-phenyl]-nicotinamide] | < 1000 nM
CC1(C)CNCc2cc(NC(=O)c3cccnc3Nc3cccc4cnccc34)ccc21 [Example 69, N-(4,4-Dimethyl-1,2,3,4-tetrahydro-isoquinolin-7-yl)-2-(isoquinolin-5-ylamino)-nicotinamide] | < 1000 nM
CC1(C)CNc2cc(NC(=O)c3cccnc3Nc3cccc4cnccc34)ccc21 [Example 70, N-(3,3-Dimethyl-2,3-dihydro-1H-indol-6-yl)-2-(isoquinolin-5-ylamino)-nicotinamide] | < 1000 nM
CC(C)(C)c1cc(NC(=O)c2cccnc2Nc2cccc3cnccc23)on1 [Example 71, N-(3-tert-butylisoxazol-5-yl)-2-(isoquinolin-5-ylamino)nicotinamide] | < 1000 nM
CC(C)(C)c1ccc(NC(=O)c2cccnc2Nc2cccc3ncccc23)cc1 [Example 72, N-(4-(1,1-dimethylethyl)phenyl)-2-(5-quinolinylamino)-3-pyridinecarboxamide] | < 1000 nM
CC(C)(C)OC(=O)NCC(=O)N1Cc2cc(NC(=O)c3cccnc3Nc3ccc4ccncc4c3)ccc2C(C)(C)C1 [Example 73, [2-(7-{[2-(Isoquinolin-7-ylamino)-pyridine-3-carbonyl]-amino}-4,4-dimethyl-3,4-dihydro-1H-isoquinolin-2-yl)-2-oxo-ethyl]-carbamic acid tert-butyl ester] | < 1000 nM
CC1(C)CN(C(=O)CN)Cc2cc(NC(=O)c3cccnc3Nc3ccc4ccncc4c3)ccc21 [Example 75, N-[2-(2-Amino-acetyl)-4,4-dimethyl-1,2,3,4-tetrahydro-isoquinolin-7-yl]-2-(isoquinolin-7-ylamino)-nicotinamide] | < 1000 nM
CC(C)(C)c1ccc(NC(=O)c2ccccc2Nc2ccc3ccncc3n2)cc1 [Example 76, N-(4-tert-Butyl-phenyl)-2-([1,7]naphthyridin-2-ylamino)-benzamide] | < 1000 nM
CC1(C)CNCc2cc(NC(=O)c3ccccc3Nc3ccc4ccncc4n3)ccc21 [Example 77, N-(4,4-Dimethyl-1,2,3,4-tetrahydro-isoquinolin-7-yl)-2-([1,7]naphthyridin-2-ylamino)-benzamide] | < 1000 nM
